According to patent publication US9437446B2, “Slurry for chemical mechanical polishing and chemical mechanical polishing method” (KURARAY CO., LTD., priority 2012, dated 2016):

Experiments:
[1] = pKa of the amino group (conjugated acid) of the amino compound used in the slurry; details: water

Description: Such value of the pKa can be measured by the potentiometric titration method. In the present specification, the pKa of the amino group is “pKa of conjugated acid of the amino group”.

Structure (SMILES)	pKa [1]	pKa (physchem)
CCCCNCCO [2-(butylamino)ethanol]	10	–
CCNC[C@H](O)[C@@H](O)[C@H](O)[C@H](O)CO [N-ethyl glucamine, N-ethylglucamine]	9.5	–
N[C@H]1C(O)O[C@H](CO)[C@@H](O)[C@@H]1O (stereo partly shown) [glucosamine]	7.6	–
